# According to patent US20210186905A1, “ENHANCING T-CELL FUNCTION AND TREATING A T-CELL DYSFUNCTIONAL DISORDER WITH A COMBINATION OF AN LSD INHIBITOR AND A PD-1 BINDING ANTAGONIST” (EpiAxis Therapeutic Pty Ltd, priority 2017, published 2021):
# Counter-ions that a name gives are not always drawn.
# Columns and labels:
# IFN-γ and TNF-α = assay: Immunofluorescence of IFN-γ and TNF-α in CD8+ T-cells; format: in vivo, mouse; details: IF % change
# Experimental: FIG. 5 is a graphical representation showing that dual epigenetic-immunotherapy re-educates and re-programs the T-cell repertoire. A. Cells stimulated with PMA/ionomycin for 4 hours in the presence of Brefeldin A. Cells were surfaced stained with CD45, CD3, CD4, CD8, CD44, CD62L (for naïve, effector and central memory), CD25 and FoxP3 (for Tregs) and analyzed via Flow cytometry. A Mann-Whitney non-parametric t-test was used to compare control vs other groups (*p<0.05, n=2-5). […] Representative images for each dataset are shown. TNFI values for EOMES, TBET and Ki67 measured using Image) to select the nucleus minus background. […] Cells stimulated with PMA/ionomycin for 4 hours in the presence of Brefeldin A. Cell were surfaced stained with CD45, CD3, CD4, CD8 and intracellular staining of IFN-γ, IL-2 and TNF-α in the presence of Brefeldin A and analyzed via flow cytometry. […] TNFI values for TNFα and IFNγ measured using ImageJ to select the nucleus minus background. […]
# (§1) A total of 2×10^5 cells were injected per mouse into mammary gland in 50 μL of phosphate buffered saline (PBS). […] Tumors were measured using calipers and the tumor volumes (mm3) were calculated using the formula (length×width2)/2. ? arvested cells from primary tumors where then cytospun ? -treated with poly-1-lysine and fixed then stored in PBS for IFA Microscopy Analysis. […]
# CD133, ALDH1A and ABCB5 = assay: Immunofluorescence of cancer cells from primary tumor micro-environment, chemo-resistant stem-like signature panel; format: in vivo, mouse; details: cancer cells from primary TME; % change relative to vehicle control
# Experimental: FIG. 2 is a graphical and photographic representation showing the efficacy of dual phenelzine sulfate (phenelzine) and anti-PD1 antibody (PD1) therapy on circulating tumor cells (CTCs) and cancer stem cells (CSC) as well as tumor burden. A. Statistics of tumor volumes on day 15 post-treatment. A Mann-Whitney non-parametric t-test was used to compare control vs other groups (*p<0.02, **p<0.008). Group A=Control, Group C: PD1 (10 mg/kg), Group D: Phenelzine (40 mg/kg), Group F: PD1+Phenelzine. Illustration of the treatment protocol is also shown. […] Representative images for each dataset are shown. […] C. […] (a) Representative images for each dataset are shown. (b) Graph represents the TCFI values for CD133 TNFI for ALDH1A and TFI for ABCB5 measured using ImageJ to select the nucleus/cytoplasm minus background (n>20 individual cells, Group A=Control, Group C: PD1 (10 mg/kg), Group D: Phenelzine (40 mg/kg), Group F: PD1+Phenelzine).
# FIG. 11 is a photographic and graphical representation showing triple therapy efficacy on CTC/CSC and tumor burden. A. Statistics of tumor volumes on day 15 post-treatment. […] (b) Graph represents the TCFI values for CD133 TNFI for ALDH1A and TFI for ABCB5 measured using ImageJ to select the nucleus/cytoplasm minus background (n>20 individual cells, Group A=Control, Group B: Abraxane (30 mg/kg), Group C: anti-PD1 (10 mg/kg), Group D: Phenelzine (40 mg/kg), Group E: Abraxane+PD1, Group F: PD1+Phenelzine, Group G: Abraxane+Phenelzine, Group H: Triple Therapy).
# Next, the cancer cells were assessed for expression of a chemo-resistant, stem-like biomarker signature biomarker panel (CD133, ALDH1A and ABCB5).
# as §1
smiles,measurement,setting,value
"NNCCc1ccccc1 (racemic) [phenelzine sulfate, (±)-2-phenylethylhydrazine]",IFN-γ expression,IFN-γ and TNF-α,no significant effect
same,expression of ABCB5,"CD133, ALDH1A and ABCB5",strongly inhibited
same,expression of ALDH1A,"CD133, ALDH1A and ABCB5",did not significantly affect
same,expression of CD133,"CD133, ALDH1A and ABCB5",did not significantly affect
